Test results reported in ChEMBL document CHEMBL4257530, “Synthesis and evaluation of 6-heteroarylamino-2,4,5-trimethylpyridin-3-ols as inhibitors of TNF-α-induced cell adhesion and inflammatory bowel disease” (Medchemcomm, 2018).
Calls of active or inactive are those of the source. The rule behind the calls is not given here.

Key:
Rattus norvegicus [1] = assay: Antiinflammatory activity in TNBS-induced Sprague-Dawley rat colitis model assessed as recovery in colon weight at 300 mg/kg, po administered once daily via gavage for 5 days starting 1 day post TNBS induction measured on day 7; assay type: functional, organism-based
Rattus norvegicus [2] = assay: Antiinflammatory activity in TNBS-induced Sprague-Dawley rat colitis model assessed as myeloperoxidase level at 300 mg/kg, po administered once daily via gavage for 5 days starting 1 day post TNBS induction measured on day 7 by ELISA (reference value: 456.67 +/- 41.78 ng/ml); assay type: functional
Rattus norvegicus [3] = assay: Antiinflammatory activity in TNBS-induced Sprague-Dawley rat colitis model assessed as decrease in MCP1 expression at 300 mg/kg, po administered once daily via gavage for 5 days starting 1 day post TNBS induction measured on day 7 by ELISA; assay type: functional, organism-based
Rattus norvegicus [4] = assay: Antiinflammatory activity in TNBS-induced Sprague-Dawley rat colitis model assessed as decrease in ICAM1 expression at 300 mg/kg, po administered once daily via gavage for 5 days starting 1 day post TNBS induction measured on day 7 by Western blot analysis; assay type: functional, organism-based
Rattus norvegicus [5] = assay: Antiinflammatory activity in TNBS-induced Sprague-Dawley rat colitis model assessed as decrease in TNFalpha expression at 300 mg/kg, po administered once daily via gavage for 5 days starting 1 day post TNBS induction measured on day 7 by Western blot analysis; assay type: functional, organism-based
Rattus norvegicus [6] = assay: Antiinflammatory activity in TNBS-induced Sprague-Dawley rat colitis model assessed as decrease in IL1beta expression at 300 mg/kg, po administered once daily via gavage for 5 days starting 1 day post TNBS induction measured on day 7 by Western blot analysis; assay type: functional, organism-based
Rattus norvegicus [7] = assay: Antiinflammatory activity in TNBS-induced Sprague-Dawley rat colitis model assessed as decrease in IL-6 expression at 300 mg/kg, po administered once daily via gavage for 5 days starting 1 day post TNBS induction measured on day 7 by Western blot analysis; assay type: functional, organism-based
Rattus norvegicus [8] = assay: Antiinflammatory activity in TNBS-induced Sprague-Dawley rat colitis model assessed as increase in IL-10 expression at 300 mg/kg, po administered once daily via gavage for 5 days starting 1 day post TNBS induction measured on day 7 by Western blot analysis; assay type: functional, organism-based
HT-29 [9] = assay: Inhibition of TNFalpha-mediated adhesion of BCECF fluorescence-labeled human U937 cells to human HT-29 cells at 1 uM pretreated for 1 hr followed by BCECF fluorescence-labeled human U937 cell/TNFalpha addition and measured after 3 hrs by fluorescence assay relative to control; assay type: functional
HT-29 [10] = assay: Potency index, ratio of compound effect to 5-ASA effect for inhibition of TNFalpha-mediated adhesion of BCECF fluorescence-labeled human U937 cells to human HT-29 cells at 1 uM; assay type: functional
HT-29 [11] = assay: Inhibition of TNFalpha-mediated adhesion of BCECF fluorescence-labeled human U937 cells to human HT-29 cells at 20 mM pretreated for 1 hr followed by BCECF fluorescence-labeled human U937 cell/TNFalpha addition and measured after 3 hrs by fluorescence assay relative to control; assay type: functional
Rattus norvegicus [12] = assay: Antiinflammatory activity in TNBS-induced Sprague-Dawley rat colitis model assessed as myeloperoxidase level at 1 mg/kg, po administered once daily via gavage for 5 days starting 1 day post TNBS induction measured on day 7 by ELISA (reference value: 456.67 +/- 41.78 ng/ml); assay type: functional
Rattus norvegicus [13] = assay: Antiinflammatory activity in TNBS-induced Sprague-Dawley rat colitis model assessed as reduction in body weight loss at 1 mg/kg, po administered once daily via gavage for 5 days starting 1 day post TNBS induction measured on day 7; assay type: functional, organism-based
Rattus norvegicus [14] = assay: Antiinflammatory activity in TNBS-induced Sprague-Dawley rat colitis model assessed as recovery in colon weight at 1 mg/kg, po administered once daily via gavage for 5 days starting 1 day post TNBS induction measured on day 7 relative to control; assay type: functional
Rattus norvegicus [15] = assay: Antiinflammatory activity in TNBS-induced Sprague-Dawley rat colitis model assessed as decrease in MCP1 expression at 1 mg/kg, po administered once daily via gavage for 5 days starting 1 day post TNBS induction measured on day 7 by ELISA; assay type: functional, organism-based
Rattus norvegicus [16] = assay: Antiinflammatory activity in TNBS-induced Sprague-Dawley rat colitis model assessed as decrease in ICAM1 expression at 1 mg/kg, po administered once daily via gavage for 5 days starting 1 day post TNBS induction measured on day 7 by Western blot analysis; assay type: functional, organism-based
Rattus norvegicus [17] = assay: Antiinflammatory activity in TNBS-induced Sprague-Dawley rat colitis model assessed as decrease in TNFalpha expression at 1 mg/kg, po administered once daily via gavage for 5 days starting 1 day post TNBS induction measured on day 7 by Western blot analysis; assay type: functional, organism-based
Rattus norvegicus [18] = assay: Antiinflammatory activity in TNBS-induced Sprague-Dawley rat colitis model assessed as decrease in IL1beta expression at 1 mg/kg, po administered once daily via gavage for 5 days starting 1 day post TNBS induction measured on day 7 by Western blot analysis; assay type: functional, organism-based
Rattus norvegicus [19] = assay: Antiinflammatory activity in TNBS-induced Sprague-Dawley rat colitis model assessed as decrease in IL-6 expression at 1 mg/kg, po administered once daily via gavage for 5 days starting 1 day post TNBS induction measured on day 7 by Western blot analysis; assay type: functional, organism-based
Rattus norvegicus [20] = assay: Antiinflammatory activity in TNBS-induced Sprague-Dawley rat colitis model assessed as increase in IL-10 expression at 1 mg/kg, po administered once daily via gavage for 5 days starting 1 day post TNBS induction measured on day 7 by Western blot analysis; assay type: functional, organism-based
HT-29 [21] = assay: Potency index, ratio of 5-ASA IC50 to test compound IC50 for TNFalpha-mediated adhesion of BCECF fluorescence-labeled human U937 cells to human HT-29 cells; assay type: functional

O=C(O)c1cc(/N=N/c2ccc(S(=O)(=O)Nc3ccccn3)cc2)ccc1O [SULFASALAZINE]
Activity (Rattus norvegicus [1]): Active
Activity (Rattus norvegicus [2]): 209.65 ng/mL
Activity (Rattus norvegicus [3]): Active
Activity (Rattus norvegicus [4]): Active
Activity (Rattus norvegicus [5]): Active
Activity (Rattus norvegicus [6]): Active
Activity (Rattus norvegicus [7]): Active
Activity (Rattus norvegicus [8]): Active

COC(=O)c1sccc1Nc1nc(C)c(O)c(C)c1C
inhibition at 1 µM (HT-29 [9]): 23.7%
Ratio (HT-29 [10]): 3 - 5

Cc1nc(Nc2nnc(C(F)(F)F)o2)c(C)c(C)c1O
inhibition at 1 µM (HT-29 [9]): 35.8%
Ratio (HT-29 [10]): 3 - 5

Cc1nc(Nc2nnc(-c3ccccc3)o2)c(C)c(C)c1O
inhibition at 1 µM (HT-29 [9]): 1.4%

Cc1nc(Nc2nnc(-c3ccc(C(F)(F)F)cc3)s2)c(C)c(C)c1O
inhibition at 1 µM (HT-29 [9]): 52.3%
Ratio (HT-29 [10]): 3 - 5

Cc1nc(Nc2ccc3ncccc3c2)c(C)c(C)c1O
inhibition at 1 µM (HT-29 [9]): 56.6%
Ratio (HT-29 [10]): 3 - 5

Cc1ccc(-c2nnc(Nc3nc(C)c(O)c(C)c3C)s2)cc1
inhibition at 1 µM (HT-29 [9]): 16.6%
Ratio (HT-29 [10]): 3 - 5

Nc1ccc(O)c(C(=O)O)c1 [MESALAMINE]
inhibition at 1 µM (HT-29 [9]): 3.5%
inhibition at 20000 µM (HT-29 [11]): 50.5%

Cc1nc(Nc2nccs2)c(C)c(C)c1O
inhibition at 1 µM (HT-29 [9]): 23.7%
Ratio (HT-29 [10]): 3 - 5

Cc1nc(Nc2cncc3ccccc23)c(C)c(C)c1O
inhibition at 1 µM (HT-29 [9]): 55.4%
Ratio (HT-29 [10]): 3 - 5

Cc1nnc(Nc2nc(C)c(O)c(C)c2C)o1
inhibition at 1 µM (HT-29 [9]): 26.2%
Ratio (HT-29 [10]): 3 - 5

Cc1nc(Nc2nnc(-c3ccc(Br)cc3)s2)c(C)c(C)c1O
inhibition at 1 µM (HT-29 [9]): 13.7%
Ratio (HT-29 [10]): 3 - 5

Cc1nc(Nc2ccc(C(F)(F)F)nc2)c(C)c(C)c1O
inhibition at 1 µM (HT-29 [9]): 50.6%
Ratio (HT-29 [10]): 3 - 5

Cc1nc(Nc2nc3ccccc3[nH]2)c(C)c(C)c1O
inhibition at 1 µM (HT-29 [9]): 59.9%
Ratio (HT-29 [10]): 3 - 5

Cc1nc(Nc2nnc(-c3ccccc3)s2)c(C)c(C)c1O
inhibition at 1 µM (HT-29 [9]): 78.7%
Ratio (HT-29 [10]): 3 - 5
Activity (Rattus norvegicus [12]): 107.37 ng/mL
Activity (Rattus norvegicus [13]): Active
Activity (Rattus norvegicus [14]): 79%
Activity (Rattus norvegicus [15]): Active
Activity (Rattus norvegicus [16]): Active
Activity (Rattus norvegicus [17]): Active
Activity (Rattus norvegicus [18]): Active
Activity (Rattus norvegicus [19]): Active
Activity (Rattus norvegicus [20]): Active

Cc1nc(Nc2ccc(Cl)nc2)c(C)c(C)c1O
inhibition at 1 µM (HT-29 [9]): 75.4%
Ratio (HT-29 [10]): 3 - 5
Activity (Rattus norvegicus [12]): 127.02 ng/mL
Activity (Rattus norvegicus [13]): Active
Activity (Rattus norvegicus [14]): 72%
Activity (Rattus norvegicus [15]): Active
Activity (Rattus norvegicus [16]): Active
Activity (Rattus norvegicus [17]): Active
Activity (Rattus norvegicus [18]): Active
Activity (Rattus norvegicus [19]): Active
Activity (Rattus norvegicus [20]): Active
Ratio IC50 (HT-29 [21]): <=7 ×10⁴ No_unit

Cc1nc(Nc2cnc3ccccc3c2)c(C)c(C)c1O
inhibition at 1 µM (HT-29 [9]): 63.4%
Ratio (HT-29 [10]): 3 - 5
Ratio IC50 (HT-29 [21]): <=7 ×10⁴ No_unit

Cc1nc(Nc2cccc3cnccc23)c(C)c(C)c1O
inhibition at 1 µM (HT-29 [9]): 52.8%
Ratio (HT-29 [10]): 3 - 5

Cc1nc(Nc2ccc(Cl)cn2)c(C)c(C)c1O
inhibition at 1 µM (HT-29 [9]): 59%
Ratio (HT-29 [10]): 3 - 5

Cc1nc(Nc2ccccn2)c(C)c(C)c1O
inhibition at 1 µM (HT-29 [9]): 8.5%
Ratio (HT-29 [10]): 3 - 5

Cc1nc(Nc2ccnc3ccccc23)c(C)c(C)c1O
inhibition at 1 µM (HT-29 [9]): 60.2%
Ratio (HT-29 [10]): 3 - 5

Cc1nc(Nc2ccc(C(F)(F)F)cn2)c(C)c(C)c1O
inhibition at 1 µM (HT-29 [9]): 34.8%
Ratio (HT-29 [10]): 3 - 5

Cc1nc(Nc2nnc(-c3ccc(C(F)(F)F)cc3)o2)c(C)c(C)c1O
inhibition at 1 µM (HT-29 [9]): 55.7%
Ratio (HT-29 [10]): 3 - 5

COc1ccc(-c2nnc(Nc3nc(C)c(O)c(C)c3C)s2)cc1
inhibition at 1 µM (HT-29 [9]): 13.2%
Ratio (HT-29 [10]): 3 - 5

Cc1nc(Nc2cccc3cccnc23)c(C)c(C)c1O
inhibition at 1 µM (HT-29 [9]): 10.4%
Ratio (HT-29 [10]): 3 - 5

CCOC(=O)c1coc(Nc2nc(C)c(O)c(C)c2C)n1
inhibition at 1 µM (HT-29 [9]): 38.5%
Ratio (HT-29 [10]): 3 - 5

Cc1nc(Nc2cccc3[nH]ccc23)c(C)c(C)c1O
inhibition at 1 µM (HT-29 [9]): 31.9%
Ratio (HT-29 [10]): 3 - 5

Cc1nc(Nc2cc(C(F)(F)F)ccn2)c(C)c(C)c1O
inhibition at 1 µM (HT-29 [9]): 22.8%
Ratio (HT-29 [10]): 3 - 5
